pKi: −log10 of the molar value.
System: not given
Conditions: not given

Structure (SMILES) | melting point [°C]
O=S(=O)(c1ccc(I)cc1)n1cc(C(O)CN2CCN(c3ccccn3)CC2)c2cc(F)ccc21 (centres unmarked) [4b, 1-(5-fluoro-1-((4-iodophenyl)sulfonyl)-1H-indol-3-yl)-2-(4-(pyridin-2-yl)piperazin-1-yl)ethan-1-ol] | 135 to 137
COc1ccc2c(c1)c(C(O)CN1CCN(c3ccccc3OC)CC1)cn2S(=O)(=O)c1ccc(I)cc1 (centres unmarked) [4j, 1-(1-((4-iodophenyl)sulfonyl)-5-methoxy-1H-indol-3-yl)-2-(4-(2-methoxyphenyl)piperazin-1-yl)ethan-1-ol] | 101 to 104
COc1ccc2c(c1)c(C(O)CN1CCOCC1)cn2S(=O)(=O)c1ccc(I)cc1 (centres unmarked) [4k, 1-(1-((4-iodophenyl)sulfonyl)-5-methoxy-1H-indol-3-yl)-2-morpholinoethan-1-ol] | 120 to 124
COc1ccc2c(c1)c(C(O)CN1CCOCC1)cn2S(=O)(=O)c1cccc2ccccc12 (centres unmarked) [4m, 1-(5-methoxy-1-(naphthalen-1-ylsulfonyl)-1H-indol-3-yl)-2-morpholinoethan-1-ol] | 190 to 192

Further lines, results first:

melting point [°C] | Structure (SMILES)
94.5 to 96.4 | COc1ccccc1N1CCN(CC(O)c2cn(S(=O)(=O)c3ccc(I)cc3)c3ccc(F)cc23)CC1 (centres unmarked) [4a, 1-(5-fluoro-1-((4-iodophenyl)sulfonyl)-1H-indol-3-yl)-2-(4-(2-methoxyphenyl)piperazin-1-yl) ethan-1-ol]
181.1 to 183.2 | COc1ccccc1N1CCN(CC(O)c2cn(S(=O)(=O)c3cccc4ccccc34)c3ccc(F)cc23)CC1 (centres unmarked) [4d, 1-(5-fluoro-1-(naphthalen-1-ylsulfonyl)-1H-indol-3-yl)-2-(4-(2-methoxyphenyl)piperazin-1-yl)ethan-1-ol]
112 to 114 | O=S(=O)(c1cccc2ccccc12)n1cc(C(O)CN2CCN(c3ccccn3)CC2)c2cc(F)ccc21 (centres unmarked) [4e, 1-(5-fluoro-1-(naphthalen-1-ylsulfonyl)-1H-indol-3-yl)-2-(4-(pyridin-2-yl)piperazin-1-yl)ethan-1-ol]
164.1 to 165.8 | O=S(=O)(c1cccc2ccccc12)n1cc(C(O)CN2CCOCC2)c2cc(F)ccc21 (centres unmarked) [4f, 1-(5-fluoro-1-(naphthalen-1-ylsulfonyl)-1H-indol-3-yl)-2-morpholinoethan-1-ol]
100 to 103 | O=S(=O)(c1cccc2ccccc12)n1cc(C(O)CN2CCN(c3ncccn3)CC2)c2cc(F)ccc21 (centres unmarked) [4g, 1-(5-fluoro-1-(naphthalen-1-ylsulfonyl)-1H-indol-3-yl)-2-(4-(pyrimidin-2-yl)piperazin-1-yl)ethan-1-ol]
105 to 107 | COc1ccc2c(c1)c(C(O)CN1CCN(c3ccccc3OC)CC1)cn2S(=O)(=O)c1cccc2ccccc12 (centres unmarked) [4l, 1-(5-methoxy-1-(naphthalen-1-ylsulfonyl)-1H-indol-3-yl)-2-(4-(2-methoxyphenyl)piperazin-1-yl)ethan-1-ol]

Target: 5-HT6 receptor
Conditions: cited from earlier work

Structure (SMILES) | pKi
COc1ccc2c(c1)c(CCN(C)C)cn2S(=O)(=O)c1ccccc1 [MS-245] | 8.64

From PMC8227400, “Novel N-Arylsulfonylindoles Targeted as Ligands of the 5-HT6 Receptor. Insights on the Influence of C-5 Substitution on Ligand Affinity” (Pharmaceuticals, 2021)
